ChEMBL document CHEMBL3576818, “Structure-Activity Relationships of (+)-Naltrexone-Inspired Toll-like Receptor 4 (TLR4) Antagonists” (J Med Chem, 2015)

Columns and labels:
[1] = Cytotoxicity against mouse BV2 cells assessed as reduction in viability by crystal violet staining method; settings: BV-2
[2] = biological target: T1, Toll-like receptor 4 (Mus musculus, UniProt Q9QUK6)
T1 sequence (Q9QUK6 whole entry): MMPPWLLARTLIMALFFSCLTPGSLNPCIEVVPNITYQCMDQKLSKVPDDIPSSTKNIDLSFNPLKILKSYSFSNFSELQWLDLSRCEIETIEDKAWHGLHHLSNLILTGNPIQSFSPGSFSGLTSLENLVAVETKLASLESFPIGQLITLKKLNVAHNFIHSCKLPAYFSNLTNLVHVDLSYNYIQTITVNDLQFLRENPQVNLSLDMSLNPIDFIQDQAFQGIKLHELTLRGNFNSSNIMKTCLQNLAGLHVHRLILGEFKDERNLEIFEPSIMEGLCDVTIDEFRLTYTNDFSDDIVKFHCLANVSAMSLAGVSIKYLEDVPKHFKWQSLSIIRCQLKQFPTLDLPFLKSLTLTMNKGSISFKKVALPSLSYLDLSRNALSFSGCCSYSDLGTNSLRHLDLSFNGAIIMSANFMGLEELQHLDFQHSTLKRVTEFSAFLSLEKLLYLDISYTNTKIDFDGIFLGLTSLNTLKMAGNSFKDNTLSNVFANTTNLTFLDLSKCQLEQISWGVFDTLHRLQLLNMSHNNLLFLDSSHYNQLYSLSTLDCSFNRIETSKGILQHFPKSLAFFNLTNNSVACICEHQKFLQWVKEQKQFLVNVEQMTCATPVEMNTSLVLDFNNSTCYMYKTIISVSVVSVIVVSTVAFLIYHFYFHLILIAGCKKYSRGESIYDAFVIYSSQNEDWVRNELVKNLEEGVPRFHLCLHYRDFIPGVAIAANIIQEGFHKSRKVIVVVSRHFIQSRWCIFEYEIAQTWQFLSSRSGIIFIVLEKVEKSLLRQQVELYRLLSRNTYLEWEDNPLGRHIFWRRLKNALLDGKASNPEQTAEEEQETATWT
Description: Antagonist activity against TLR4 in mouse BV2 cells assessed as inhibition of LPS-induced nitric oxide production incubated for 24 hrs by 2,3-diaminonaphthalene dye based assay

| Compound | IC50 [1] [µM] | IC50 [2] [µM] |
| --- | --- | --- |
| O=C1CC[C@]2(O)[C@@H]3Cc4ccc(O)c5c4[C@]2(CCN3CCCCCc2ccccc2)[C@@H]1O5 | 26.8 | 1.7 |
| O=C1CC[C@]2(O)[C@@H]3Cc4ccc(O)c5c4[C@]2(CCN3CC2CC2)[C@@H]1O5 | > 400 | 106 |
| O=C1CC[C@]2(O)CN(CC3CC3)CC[C@]23c2cccc(O)c2O[C@H]13 | > 400 | 76.2 |
| CCCCCCN1CC[C@@]23CCCC[C@]2(O)[C@@H]1Cc1ccc(O)cc13 | – | 5.2 |
| Oc1ccc2c3c1O[C@@H]1[C@@H](O)CC[C@]4(O)[C@H](C2)N(CC2CC2)CC[C@@]314 | > 400 | 243 |
| Oc1ccc2c3c1O[C@@H]1[C@H](O)CC[C@]4(O)[C@H](C2)N(CC2CC2)CC[C@@]314 | > 400 | 144 |
| O=C1CC[C@]2(O)[C@@H]3Cc4ccc(O)cc4[C@]2(CCN3CC2CC2)C1 | > 400 | 118 |
| Oc1ccc2c(c1)[C@]13CCCC[C@]1(O)[C@H](C2)N(CC1CC1)CC3 | 366 | 48.9 |
| CCCCCCN1CC[C@@]23C=CCC[C@]2(O)[C@@H]1Cc1ccc(O)cc13 | 155 | 22.5 |
| CCCCN1CC[C@@]23c4c5ccc(O)c4O[C@@H]2C(=O)CC[C@]3(O)[C@@H]1C5 | > 200 | 24.8 |
| CCCCCN1CC[C@@]23c4c5ccc(O)c4O[C@@H]2C(=O)CC[C@]3(O)[C@@H]1C5 | > 200 | 7.5 |
| CCCCCCN1CC[C@@]23c4c5ccc(O)c4O[C@@H]2C(=O)CC[C@]3(O)[C@@H]1C5 | 121 | 6.7 |
| CCCCCCCN1CC[C@@]23c4c5ccc(O)c4O[C@@H]2C(=O)CC[C@]3(O)[C@@H]1C5 | 68.5 | 3 |
| CCCCCCCCN1CC[C@@]23c4c5ccc(O)c4O[C@@H]2C(=O)CC[C@]3(O)[C@@H]1C5 | – | 1.7 |
| O=C1CC[C@]2(O)[C@@H]3Cc4ccc(O)c5c4[C@]2(CCN3CCCCc2ccccc2)[C@@H]1O5 | 37.1 | 1.2 |
| O=C1CC[C@]2(O)[C@@H]3Cc4ccc(O)c5c4[C@]2(CCN3CCCc2ccccc2)[C@@H]1O5 | 69.3 | 1.4 |
| O=C1CC[C@]2(O)[C@@H]3Cc4ccc(O)c5c4[C@]2(CCN3CCc2ccccc2)[C@@H]1O5 | 141 | 1.4 |
| O=C1CC[C@]2(O)[C@@H]3Cc4ccc(O)c5c4[C@]2(CCN3CCc2ccccc2F)[C@@H]1O5 | 65.7 | 1.8 |
| COc1ccc2c3c1O[C@@H]1C(=O)CC[C@]4(O)C(C2)N(CCc2ccccc2)CC[C@@]314 | – | 5.7 |
